This data set can be described thus: in vitro. To be noted: human, hek293t cells.
Method: Mammalian cytotoxicity measurement was performed using Cell Titer-Glo 2.0 Cell Viability Assay (Promega, G9243) according to the manufacturer protocol. In brief, mammalian cells were seeded into 384-well white plates (Greiner, 781080) and incubated at 37°C for one day. Compounds from the Cys-Library were dispensed into the assay plate using epMotion 96. The plates were then incubated at 37°C for two days. An equal volume of Cell Titer-Glo 2.0 reagent was added into each well of the assay plate using epMotion 96 and incubated at 22°C for 10 min, followed by luminescence measurement using a Cytation 5 plate reader (BioTek).
`N#CC(=Cc1ccc(OC(F)F)cc1)C(=O)Nc1ccccc1` [9-G15, 2-cyano-3-[4-(difluoromethoxy)phenyl]-N-phenylprop-2-enamide]: the viability (as a rule, a read-out of living cells in per cent, often relative to untreated cells) at 48 h, 25 µM came to 139%.

Take `CCOc1ccc(C(=O)CCl)cc1` [10-F12, 2-chloro-1-(4-ethoxyphenyl)ethan-1-one]: the viability at 48 h, 25 µM came out at 1.95%.

As to `CC(Cl)C(=O)N1CCC(c2cc3ccccc3[nH]2)C1` (centres unmarked) [7-O12, 2-chloro-1-[3-(1H-indol-2-yl)pyrrolidin-1-yl]propan-1-one], the viability at 48 h, 25 µM was determined as 82.5%.

Regarding `O=C(CCl)c1c[nH]c(C(=O)N2CCCC2)c1` [10-A16, 2-chloro-1-[5-(pyrrolidine-1-carbonyl)-1H-pyrrol-3-yl]ethan-1-one], the viability at 48 h, 25 µM is 0.377%.

`C=CC(=O)NCc1cn(C)c2ccccc12` [1-G21, N-[(1-methyl-1H-indol-3-yl)methyl]prop-2-enamide]: the viability at 48 h, 25 µM worked out at 107%.

For `CSc1ccc(C(=O)CCl)cc1` [10-E07, 2-chloro-1-[4-(methylsulfanyl)phenyl]ethan-1-one], the viability at 48 h, 25 µM turned out to be 1.88%.

As to `CC1CSc2ccccc2N(C(=O)CCl)C1` (centres unmarked) [5-H07, 2-chloro-1-(3-methyl-2,3,4,5-tetrahydro-1,5-benzothiazepin-5-yl)ethan-1-one], the viability at 48 h, 25 µM is 0.825%.

As for `C=CC(=O)NCC1(S(=O)(=O)CC)CC1` [3-O13, N-{[1-(ethanesulfonyl)cyclopropyl]methyl}prop-2-enamide], the viability at 48 h, 25 µM was 48.1%.

For `Nc1c(C(=O)CCl)c(=O)[nH]c(=O)n1C1CC1` [10-P06, 6-amino-5-(2-chloroacetyl)-1-cyclopropyl-1,2,3,4-tetrahydropyrimidine-2,4-dione], the viability at 48 h, 25 µM came to 111%.

`CCN1C(=O)CSC1=C(C#N)C(N)=O` [8-M09, 2-cyano-2-(3-ethyl-4-oxo-1,3-thiazolidin-2-ylidene)acetamide]: the viability at 48 h, 25 µM turned out to be 90.5%.

Take `N#CC(=Cc1ccc(O)c([N+](=O)[O-])c1)C(=O)Nc1ccccc1C(=O)O` [9-G10, 2-[2-cyano-3-(4-hydroxy-3-nitrophenyl)prop-2-enamido]benzoic acid]: the viability at 48 h, 25 µM was 118%.

As to `C=CC(=O)N(C)CC(=O)N1CCC(CN2CCCCC2=O)CC1` [2-F16, N-methyl-N-(2-oxo-2-{4-[(2-oxopiperidin-1-yl)methyl]piperidin-1-yl}ethyl)prop-2-enamide], the viability at 48 h, 25 µM was determined as 57%.

`COc1cc(C=C(C#N)C(=O)NCc2ccccc2)cc2c1OCCO2` [9-I10, N-benzyl-2-cyano-3-(8-methoxy-2,3-dihydro-1,4-benzodioxin-6-yl)prop-2-enamide]: the viability at 48 h, 25 µM worked out at 118%.

For `CC(Cl)C(=O)NC(C)c1cnn(CC2CCC2)c1` (centres unmarked) [5-L15, 2-chloro-N-{1-[1-(cyclobutylmethyl)-1H-pyrazol-4-yl]ethyl}propanamide], the viability at 48 h, 25 µM amounted to 108%.

Regarding `O=C(CCl)c1ccc(Cl)c(Cl)c1` [10-L16, 2-chloro-1-(3,4-dichlorophenyl)ethan-1-one], the viability at 48 h, 25 µM came out at 31.3%.

`CCC(c1cc(Cl)cc(Cl)c1)N(C)C(=O)CCl` (centres unmarked) [7-L10, 2-chloro-N-[1-(3,5-dichlorophenyl)propyl]-N-methylacetamide]: the viability at 48 h, 25 µM amounted to 0.495%.

As for `CC(C)c1ccc(Cn2[nH]ccc2=NC(=O)CCl)cc1` [5-P12, 2-chloro-N-(2-{[4-(propan-2-yl)phenyl]methyl}-2,3-dihydro-1H-pyrazol-3-ylidene)acetamide], the viability at 48 h, 25 µM was -0.215%.

As for `C=CC(=O)Nc1cnn(-c2ccccc2)c1C(F)F` [3-I03, N-[5-(difluoromethyl)-1-phenyl-1H-pyrazol-4-yl]prop-2-enamide], the viability at 48 h, 25 µM came to 41.7%.

As for `CC(Cl)C(=O)NCc1nnc(C2CCC2)n1C` (centres unmarked) [7-A10, 2-chloro-N-[(5-cyclobutyl-4-methyl-4H-1,2,4-triazol-3-yl)methyl]propanamide], the viability at 48 h, 25 µM was 87.1%.

With `O=C(CCl)NCCOc1ccc2ccccc2c1` [6-A14, 2-chloro-N-[2-(naphthalen-2-yloxy)ethyl]acetamide], the viability at 48 h, 25 µM turned out to be 0.0621%.

(Values after publication PMC11995724, “Antibiotic target discovery by integrated phenotypic and activity-based profiling of electrophilic fragments” (Cell chemical biology, 2025).)
